From patent US20070010498A1, “Method for reducing blood loss associated with cardio-pulmonary bypass surgery” (priority 2005, published 2007)

Assay: plasma concentrations of COL-3 in humans
Type: in vivo
Settings: dose of about 10 to about 20 mg/day

NC(=O)C1=C(O)C[C@@H]2C[C@@H]3Cc4cccc(O)c4C(=O)C3=C(O)[C@]2(O)C1=O [COL-3, 6-demethyl-6-deoxy-4-de(dimethylamino)tetracycline]
plasma concentrations: about 1.0 μg/ml
